Test [1] concerns Mouse mammary carcinoma 4T1 cells. Briefly: Anchorage-independent tumor cell growth assay. Type of test: cell-based. On the procedure:
Cells are cultured for 2 h and inhibitors are added at various concentrations in a final concentration of 0.1% DMSO. After 48 h, cell growth is assayed with the cell counting kit-8 (Wako Pure Chemical), which uses a water soluble tetrazolium salt WST8. Twenty μL of the reagent is added into each well and cells are further cultured for 2 h. The optical density is measured at 450 nm.

The target of test [2] is Focal Adhesion Kinase (FAK) (Homo sapiens, UniProt Q05397). Briefly: FAK assay system (Focal Adhesion Kinase inhibition). The class given is biochemical. The note with it: read-out: FAK IC50.
The target of a further test is FAK (Mus musculus, UniProt P34152). Briefly: Phos IC50 (phosphorylation). The class given is cell-based.

SMILES strings stand for the structures. Read-outs that look alike come from different tables or passages of the source. A value given as a limit tells only on which side of the number the result lay.

Chain of FAK (P34152 2-1052): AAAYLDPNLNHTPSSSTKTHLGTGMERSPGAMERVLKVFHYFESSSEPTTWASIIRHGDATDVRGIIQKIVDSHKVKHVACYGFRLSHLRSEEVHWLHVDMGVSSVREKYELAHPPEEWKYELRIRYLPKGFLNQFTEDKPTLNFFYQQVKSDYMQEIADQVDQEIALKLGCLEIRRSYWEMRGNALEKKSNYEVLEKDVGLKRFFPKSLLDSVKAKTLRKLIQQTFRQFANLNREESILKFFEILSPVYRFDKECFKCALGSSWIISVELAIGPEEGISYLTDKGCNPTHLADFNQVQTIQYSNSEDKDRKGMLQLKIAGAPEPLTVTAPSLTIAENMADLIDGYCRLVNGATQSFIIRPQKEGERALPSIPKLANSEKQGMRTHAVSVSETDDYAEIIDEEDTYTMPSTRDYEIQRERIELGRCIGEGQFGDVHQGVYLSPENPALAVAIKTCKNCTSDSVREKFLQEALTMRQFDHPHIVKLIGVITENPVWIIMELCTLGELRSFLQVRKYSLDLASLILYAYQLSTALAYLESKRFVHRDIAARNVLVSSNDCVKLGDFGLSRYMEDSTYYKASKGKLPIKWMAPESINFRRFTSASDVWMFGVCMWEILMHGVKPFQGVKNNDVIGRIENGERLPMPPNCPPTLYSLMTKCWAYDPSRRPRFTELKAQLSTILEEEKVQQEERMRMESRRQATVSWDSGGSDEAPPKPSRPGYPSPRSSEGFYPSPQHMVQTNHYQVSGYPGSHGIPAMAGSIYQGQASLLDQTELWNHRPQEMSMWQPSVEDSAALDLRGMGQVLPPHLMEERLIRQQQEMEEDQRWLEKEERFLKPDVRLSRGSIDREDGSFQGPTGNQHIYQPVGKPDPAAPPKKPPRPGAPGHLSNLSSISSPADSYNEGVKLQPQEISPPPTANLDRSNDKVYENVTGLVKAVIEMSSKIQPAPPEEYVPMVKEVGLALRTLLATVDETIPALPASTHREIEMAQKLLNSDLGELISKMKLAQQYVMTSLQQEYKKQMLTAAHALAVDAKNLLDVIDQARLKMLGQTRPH
Chain of Focal Adhesion Kinase (FAK) (Q05397 384-706): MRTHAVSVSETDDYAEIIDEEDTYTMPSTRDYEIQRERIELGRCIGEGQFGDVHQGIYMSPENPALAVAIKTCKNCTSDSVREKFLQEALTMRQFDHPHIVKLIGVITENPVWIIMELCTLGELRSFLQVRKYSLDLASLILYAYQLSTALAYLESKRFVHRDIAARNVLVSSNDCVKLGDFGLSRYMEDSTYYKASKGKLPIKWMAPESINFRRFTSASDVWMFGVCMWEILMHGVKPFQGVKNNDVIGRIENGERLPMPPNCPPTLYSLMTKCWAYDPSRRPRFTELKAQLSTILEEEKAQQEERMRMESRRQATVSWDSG

In general, IC50 refers to the concentration at which inhibition is half-maximal. `CNC(=O)c1ccccc1Nc1nc(Nc2ccc(N3CCN4CCOC[C@@H]4C3)cc2OC)ncc1Cl` [Example 7-16]: the 50% inhibitory concentration (IC50) in test [1] (Mus musculus, 4T1) is 420 nM; in test [2], 6.4 nM; on FAK, 200 nM.
The like results for `COc1ccc(F)cc1Nc1ncc(Cl)c(Nc2ccccc2S(=O)(=O)NCC(C)C)n1` [Example 22-1] were, in that order, > 10000 nM, 43 nM and > 10000 nM.
The like results for `CNC(=O)c1cc(F)ccc1Nc1nc(Nc2ccc(N3CCN(C(C)=O)CC3)cc2OC)ncc1Cl` [Example 11-4] were, in that order, 3200 nM, 4.3 nM and > 10000 nM.
The like results for `COc1cc(OC2CCN(C)CC2)ccc1Nc1ncc(Cl)c(Nc2ccccc2S(=O)(=O)NC(C)C)n1` [Example 19-7] were, in that order, 110 nM, 2.1 nM and 300 nM.
Take `CNC(=O)c1cc(F)ccc1Nc1nc(Nc2ccc(N3CCC(N4CCCCC4)CC3)cc2OC)ncc1Cl` [Example 11-2]: the half-inhibitory concentration (IC50) in test [1] (Mus musculus, 4T1) came to 690 nM; in test [2], 4.1 nM; on FAK, 800 nM.
The like results for `CNC(=O)c1cc(F)ccc1Nc1nc(Nc2cccc3c2ccn3C)ncc1Cl` [Example 11-3] were, in that order, 100 nM, 26 nM and 410 nM.
Regarding `COc1cc(OCCN2CCN(C)CC2)ccc1Nc1ncc(Cl)c(Nc2ccccc2S(=O)(=O)NC(C)C)n1` [Example 19-30], the IC50 in test [1] (Mus musculus, 4T1) is 100 nM; in test [2] it was < 1 nM; at FAK, 60 nM.
With `CCC(CC)NS(=O)(=O)c1ccccc1Nc1nc(Nc2ccc(OCC3CCCN(C)C3)cc2OC)ncc1Cl` (stereo not drawn) [Example 23-5], the concentration for half-maximal inhibition (IC50) is 590 nM in test [1] (Mus musculus, 4T1); 1.9 nM in test [2]; > 10000 nM against FAK.
With `CCCS(=O)(=O)c1ccccc1Nc1nc(Nc2ccc(N3CCC[C@@H](C(N)=O)C3)cc2OC)ncc1Cl` [Example 26-13], the IC50 in test [1] (Mus musculus, 4T1) was found to be 440 nM; in test [2], 1.6 nM; on FAK, 200 nM.
Consider `CNS(=O)(=O)c1ccccc1Nc1nc(Nc2cc(Cl)ccc2OC)ncc1Br` [Example 3-52], for which the IC50 in test [1] (Mus musculus, 4T1) worked out at 2000 nM; in test [2], 29 nM; at FAK, 420 nM.
Take `Cc1cc(N2CCOCC2)ccc1Nc1ncc(Cl)c(Nc2ccccc2S(=O)(=O)C(C)C)n1` [Example 28-6]: the IC50 in test [1] (Mus musculus, 4T1) came to 560 nM; in test [2] it was 17 nM; on FAK, 600 nM.
On to `CNS(=O)(=O)c1ccccc1Nc1nc(Nc2cc(OC3CCN(C(C)=O)CC3)ccc2OC)ncc1Br` [Example 3-75], for which the IC50 in test [1] (Mus musculus, 4T1) was 1300 nM; in test [2], 72 nM; at FAK, 500 nM.
Regarding `CNS(=O)(=O)c1ccccc1Nc1nc(Nc2cc(N3CCCCC3)ccc2C)ncc1Br` [Example 3-26], the IC50 in test [1] (Mus musculus, 4T1) amounted to 2000 nM; in test [2] it was 50 nM; against FAK it was 790 nM.
`COc1cc(CN2CCN(C)CC2)ccc1Nc1ncc(Cl)c(Nc2ccccc2S(=O)(=O)C2CC2)n1` [Example 30-5]: the IC50 in test [1] (Mus musculus, 4T1) was 290 nM; in test [2] it was 8.5 nM; against FAK, 2000 nM.
The like results for `COc1cc(N2CCC(NC(C)=O)C2)ccc1Nc1ncc(Cl)c(Nc2ccccc2S(=O)(=O)NC(C)C)n1` (stereo not drawn) [Example 19-13] were, in that order, 1100 nM, 2.5 nM and 300 nM.
The like results for `CNS(=O)(=O)c1ccccc1Nc1nc(Nc2cccc3c2ccn3CCCN2CCOCC2)ncc1Cl` [Example 20-10] were, in that order, 20 nM, 2 nM and 100 nM.
Consider `CNS(=O)(=O)c1ccccc1Nc1nc(Nc2cccc3c2OC(F)(F)O3)ncc1Br` [Example 3-1], for which the IC50 in test [1] (Mus musculus, 4T1) is > 10000 nM; in test [2], 44 nM; on FAK it was 340 nM.
As to `CCOCCOC1CCN(c2ccc(Nc3ncc(Cl)c(Nc4ccccc4C(=O)NC)n3)c(OC)c2)CC1` [Example 7-9], the IC50 in test [1] (Mus musculus, 4T1) was determined as 850 nM; in test [2], 8.2 nM; on FAK, 1000 nM.
The like results for `CNC(=O)c1cc(F)ccc1Nc1nc(Nc2ccc(N3CCOCC3)cc2OC)ncc1Cl` [Example 11-1] were, in that order, 850 nM, 9 nM and 700 nM.
In the case of `CCS(=O)(=O)c1ccccc1Nc1nc(Nc2ccc(N3CCOCC3)cc2OC)ncc1Cl` [Example 27-1], the IC50 in test [1] (Mus musculus, 4T1) came out at 470 nM; in test [2], 14 nM; against FAK, 60 nM.
As to `CNC(=O)c1c(C)cccc1Nc1nc(Nc2ccc(N3CCOCC3)cc2OC)ncc1Cl` [Example 10-3], the IC50 in test [1] (Mus musculus, 4T1) is 2400 nM; in test [2], 23 nM; on FAK, 900 nM.
Take `CCC(C)NS(=O)(=O)c1ccccc1Nc1nc(Nc2ccc(N3CCN(C)CC3)cc2OC)ncc1Cl` (stereo not drawn) [Example 21-1]: the results for the IC50 (in test [1]; in test [2]; at FAK) were 190 nM, 1 nM and 70 nM, respectively.
On to `CNS(=O)(=O)c1ccccc1Nc1nc(Nc2cc(OC)ccc2OCCOC)ncc1Br` [Example 3-59], for which the IC50 in test [1] (Mus musculus, 4T1) is > 10000 nM; in test [2], 95 nM; against FAK, 1200 nM.
The like results for `CCC(CC)S(=O)(=O)c1ccccc1Nc1nc(Nc2ccc(N3CCN(C(C)=O)CC3)cc2OC)ncc1Cl` [Example 29-3] were, in that order, 990 nM, 5.6 nM and 100 nM.
The like results for `CCCCc1ccccc1Nc1ncc(Br)c(Nc2ccccc2S(=O)(=O)NC)n1` [Example 3-10] were, in that order, > 10000 nM, 52 nM and 950 nM.
The like results for `COc1cc(N2CCOCC2)ccc1Nc1ncc(Cl)c(Nc2ccccc2S(=O)(=O)c2ccccc2)n1` [Example 34-6] were, in that order, 3000 nM, 14 nM and > 10000 nM.
In the case of `CNS(=O)(=O)c1ccccc1Nc1nc(Nc2cc(-c3cccc(OC)c3)ccc2C)ncc1Br` [Example 3-28], the IC50 in test [1] (Mus musculus, 4T1) came out at 700 nM; in test [2] it was 43 nM; on FAK, 710 nM.
The like results for `CNC1CCN(c2ccc(Nc3ncc(Cl)c(Nc4ccccc4S(=O)(=O)C(C)C)n3)c(OC)c2)C1` (stereo not drawn) [Example 28-21] were, in that order, 230 nM, 1.3 nM and 100 nM.
With `CNC(=O)c1ccccc1Nc1nc(Nc2ccc(OCCN3CCOCC3)cc2OC)ncc1Cl` [Example 7-4], the IC50 worked out at 290 nM in test [1] (Mus musculus, 4T1); 5.2 nM in test [2]; 1000 nM on FAK.
Regarding `CNC(=O)c1cc(OC)ccc1Nc1nc(Nc2ccc(F)cc2OC)ncc1Cl` [Example 16-3], the IC50 was > 10000 nM in test [1] (Mus musculus, 4T1); 21 nM in test [2]; 3000 nM against FAK.
As to `CCC(C)NS(=O)(=O)c1ccccc1Nc1nc(Nc2ccc(F)cc2OC)ncc1Cl` (stereo not drawn) [Example 21-2], the IC50 was > 10000 nM in test [1] (Mus musculus, 4T1); 8.5 nM in test [2]; 330 nM against FAK.
On to `CCNC(=O)c1ccccc1Nc1nc(Nc2ccc(N3CCC(N4CCCC4)CC3)cc2OC)ncc1Cl` [Example 9-4], for which the IC50 was determined as 730 nM in test [1] (Mus musculus, 4T1); 13 nM in test [2]; 200 nM against FAK.
As for `CCS(=O)(=O)c1ccccc1Nc1nc(Nc2ccc(N3CCCC(C(N)=O)C3)cc2OC)ncc1Cl` (stereo not drawn) [Example 27-6], the IC50 was 310 nM in test [1] (Mus musculus, 4T1); 1 nM in test [2]; 80 nM against FAK.
For `CNS(=O)(=O)c1ccccc1Nc1nc(Nc2ccc(N3CCSCC3)cc2OC)ncc1Br` [Example 3-41], the IC50 is 430 nM in test [1] (Mus musculus, 4T1); 22 nM in test [2]; > 10000 nM on FAK.
With `CNS(=O)(=O)c1ccccc1Nc1nc(Nc2cc(N3CCOCC3)ccc2OC)ncc1Cl` [Example 20-11], the IC50 in test [1] (Mus musculus, 4T1) worked out at 400 nM; in test [2] it was 26 nM; on FAK, 2000 nM.
For the molecule `CNS(=O)(=O)c1ccccc1Nc1nc(Nc2ccccc2C)ncc1Br` [Example 3-7], the IC50 is 2000 nM in test [1] (Mus musculus, 4T1); 16 nM in test [2]; 450 nM against FAK.
On to `CCCS(=O)(=O)c1ccccc1Nc1nc(Nc2ccc(N3CCN(C(=O)CC)CC3)cc2OC)ncc1Cl` [Example 26-8], for which the 50% inhibitory concentration (IC50) in test [1] (Mus musculus, 4T1) was determined as 180 nM; in test [2] it was 2.9 nM; at FAK, 10 nM.
The like results for `CNc1ccccc1Nc1ncc(Br)c(Nc2ccccc2S(=O)(=O)NC)n1` [Example 3-8] were, in that order, 6000 nM, 74 nM and 300 nM.
The like results for `CNS(=O)(=O)c1ccccc1Nc1nc(Nc2cc(N3CCN(C(C)=O)CC3)ccc2OC)ncc1Cl` [Example 20-34] were, in that order, 120 nM, 13 nM and 1000 nM.
Turning to `COc1cc(N2CCOCC2)ccc1Nc1ncc(Cl)c(Nc2ccccc2S(=O)(=O)C(C)C)n1` [Example 28-3], the IC50 in test [1] (Mus musculus, 4T1) was 290 nM; in test [2] it was 7.4 nM; at FAK, 70 nM.
The like results for `CNS(=O)(=O)c1ccccc1Nc1nc(Nc2cc(OCC3CCN(C)CC3)ccc2OC)ncc1Cl` [Example 20-26] were, in that order, 270 nM, 5.3 nM and 760 nM.
Consider `CCCS(=O)(=O)c1ccccc1Nc1nc(Nc2ccc(N3CC(C)N(C(C)=O)C(C)C3)cc2OC)ncc1Cl` (stereo not drawn) [Example 26-7], for which the IC50 was determined as 950 nM in test [1] (Mus musculus, 4T1); 11 nM in test [2]; 500 nM at FAK.
In the case of `CNS(=O)(=O)c1ccccc1Nc1nc(Nc2cccc3c2ccn3CCCN2CCOCC2)ncc1Br` [Example 3-45], the IC50 in test [1] (Mus musculus, 4T1) is 20 nM; in test [2], 0.9 nM; against FAK, 20 nM.
On to `CCCS(=O)(=O)c1ccccc1Nc1nc(Nc2ccc(N3CCC[C@H](C(N)=O)C3)cc2OC)ncc1Cl` [Example 26-12], for which the IC50 in test [1] (Mus musculus, 4T1) turned out to be 190 nM; in test [2] it was 3.7 nM; against FAK it was 200 nM.
